What was measured:
PI5P4Kγ+ = PI5P4Kγ+ (Homo sapiens, UniProt Q8TBX8, D138G/D197E/E133P/E135D/E153T/E196G/G136S/G139A/N195G/S132L/S134N); experiment: Thermal shift assay; settings: read-out: ΔTm PI5P4Kγ+
BRSK1 = BRSK1 (Homo sapiens, UniProt Q8TDC3); experiment: Kinase panel, radiometric 33P filter binding; settings: read-out: % activity remaining
Description: (§1) filter binding assay using 33P-g-ATPat the MRC PPU International Centre for Kinase Profiling, University of

PHK = PHK (Homo sapiens, UniProt Q16816); experiment: Kinase panel, radiometric 33P filter binding; settings: read-out: % activity remaining
Description: as §1

TAK1 = TAK1 (Homo sapiens, UniProt O43318); experiment: Kinase panel, radiometric 33P filter binding; settings: read-out: % activity remaining
SIK3 = SIK3 (Homo sapiens, UniProt Q9Y2K2); experiment: Kinase panel, radiometric 33P filter binding; settings: read-out: % activity remaining
Description: as §1
Kinase % activity remaining s.d.

TESK1 = TESK1 (Homo sapiens, UniProt Q15569); experiment: Kinase panel, radiometric 33P filter binding; settings: read-out: % activity remaining
TESK1, sequence (Q15569 whole entry): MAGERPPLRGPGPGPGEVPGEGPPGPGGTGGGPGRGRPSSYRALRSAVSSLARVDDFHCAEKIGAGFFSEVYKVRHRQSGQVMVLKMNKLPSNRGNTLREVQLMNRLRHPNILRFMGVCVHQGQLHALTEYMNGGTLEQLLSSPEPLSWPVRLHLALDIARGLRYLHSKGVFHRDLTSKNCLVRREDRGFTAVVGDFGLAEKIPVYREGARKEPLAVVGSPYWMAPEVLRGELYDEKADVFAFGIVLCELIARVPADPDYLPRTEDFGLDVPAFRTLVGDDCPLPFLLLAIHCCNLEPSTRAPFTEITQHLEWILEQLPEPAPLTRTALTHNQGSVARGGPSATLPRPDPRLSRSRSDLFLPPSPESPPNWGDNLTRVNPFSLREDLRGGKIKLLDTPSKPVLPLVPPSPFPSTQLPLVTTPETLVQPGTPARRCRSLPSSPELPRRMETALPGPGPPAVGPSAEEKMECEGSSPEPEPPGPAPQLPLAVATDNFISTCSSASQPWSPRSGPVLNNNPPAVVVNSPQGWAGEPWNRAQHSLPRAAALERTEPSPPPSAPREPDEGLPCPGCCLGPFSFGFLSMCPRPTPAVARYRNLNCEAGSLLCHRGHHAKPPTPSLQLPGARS
Description: as §1

ULK1 = ULK1 (Homo sapiens, UniProt O75385); experiment: Kinase panel, radiometric 33P filter binding; settings: read-out: % activity remaining
Description: as §1

PKD1 = PKD1 (Homo sapiens, UniProt Q15139); experiment: Kinase panel, radiometric 33P filter binding; settings: read-out: % activity remaining
Description: as §1

DDR2 = DDR2 (Homo sapiens, UniProt Q16832); experiment: Kinase panel, radiometric 33P filter binding; settings: read-out: % activity remaining
Description: as §1

p38d MAPK = p38d MAPK (Homo sapiens, UniProt O15264); experiment: Kinase panel, radiometric 33P filter binding; settings: read-out: % activity remaining
Description: as §1

IKKb = IKKb (Homo sapiens, UniProt O14920); experiment: Kinase panel, radiometric 33P filter binding; settings: read-out: % activity remaining
IKKb, sequence (O14920 whole entry): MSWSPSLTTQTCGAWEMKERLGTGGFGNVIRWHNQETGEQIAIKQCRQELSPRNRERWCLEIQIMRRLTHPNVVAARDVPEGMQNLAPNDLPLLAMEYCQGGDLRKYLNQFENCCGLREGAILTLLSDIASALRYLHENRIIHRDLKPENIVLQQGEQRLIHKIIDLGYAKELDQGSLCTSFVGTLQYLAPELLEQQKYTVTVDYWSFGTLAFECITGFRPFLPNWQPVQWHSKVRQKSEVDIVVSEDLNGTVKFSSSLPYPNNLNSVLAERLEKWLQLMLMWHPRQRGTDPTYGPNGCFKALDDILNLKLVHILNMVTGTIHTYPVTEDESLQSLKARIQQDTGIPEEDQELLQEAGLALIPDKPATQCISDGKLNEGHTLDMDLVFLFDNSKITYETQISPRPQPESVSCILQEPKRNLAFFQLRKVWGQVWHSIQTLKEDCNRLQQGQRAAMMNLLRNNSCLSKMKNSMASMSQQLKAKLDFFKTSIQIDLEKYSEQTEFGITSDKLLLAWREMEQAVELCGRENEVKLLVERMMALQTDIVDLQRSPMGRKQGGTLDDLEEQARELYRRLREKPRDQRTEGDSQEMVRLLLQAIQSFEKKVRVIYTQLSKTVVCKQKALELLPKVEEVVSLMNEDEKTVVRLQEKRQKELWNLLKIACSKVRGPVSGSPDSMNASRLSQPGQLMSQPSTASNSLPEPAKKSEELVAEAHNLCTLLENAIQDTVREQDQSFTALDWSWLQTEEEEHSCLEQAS
Description: as §1
Kinase % activity remaining s.d.

PRAK = PRAK (Homo sapiens, UniProt Q8IW41); experiment: Kinase panel, radiometric 33P filter binding; settings: read-out: % activity remaining
Description: as §1

SIK2 = SIK2 (Homo sapiens, UniProt Q9H0K1); experiment: Kinase panel, radiometric 33P filter binding; settings: read-out: % activity remaining
Description: as §1
Kinase % activity remaining s.d.

PIM3 = PIM3 (Homo sapiens, UniProt Q86V86); experiment: Kinase panel, radiometric 33P filter binding; settings: read-out: % activity remaining
Description: as §1

ROCK 2 = ROCK 2 (Rattus norvegicus, UniProt Q62868); experiment: Kinase panel, radiometric 33P filter binding; settings: read-out: % activity remaining
Description: as §1

TBK1 = TBK1 (Homo sapiens, UniProt Q9UHD2); experiment: Kinase panel, radiometric 33P filter binding; settings: read-out: % activity remaining
Description: as §1
Kinase % activity remaining s.d.

PDK1 = PDK1 (Homo sapiens, UniProt O15530); experiment: Kinase panel, radiometric 33P filter binding; settings: read-out: % activity remaining
PDK1, sequence (O15530 whole entry): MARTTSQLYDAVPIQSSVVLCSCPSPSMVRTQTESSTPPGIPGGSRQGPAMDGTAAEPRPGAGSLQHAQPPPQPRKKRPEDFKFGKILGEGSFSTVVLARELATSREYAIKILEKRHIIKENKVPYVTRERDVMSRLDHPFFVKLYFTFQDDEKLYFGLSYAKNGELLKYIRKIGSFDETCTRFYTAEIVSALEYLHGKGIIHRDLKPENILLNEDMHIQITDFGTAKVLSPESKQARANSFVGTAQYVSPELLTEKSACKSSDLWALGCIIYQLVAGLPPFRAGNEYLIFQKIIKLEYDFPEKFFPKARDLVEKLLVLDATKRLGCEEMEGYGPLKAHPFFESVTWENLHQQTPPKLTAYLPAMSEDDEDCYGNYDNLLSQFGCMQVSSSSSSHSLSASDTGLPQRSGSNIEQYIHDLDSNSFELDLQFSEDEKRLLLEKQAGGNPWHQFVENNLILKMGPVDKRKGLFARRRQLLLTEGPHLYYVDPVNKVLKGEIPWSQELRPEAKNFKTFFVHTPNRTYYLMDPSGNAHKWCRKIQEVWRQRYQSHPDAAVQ
Description: as §1

CK1δ = CK1δ (Homo sapiens, UniProt P48730); experiment: Kinase panel, radiometric 33P filter binding; settings: read-out: % activity remaining
Description: as §1

CAMK1 = CAMK1 (Homo sapiens, UniProt Q14012); experiment: Kinase panel, radiometric 33P filter binding; settings: read-out: % activity remaining
CAMK1, sequence (Q14012 whole entry): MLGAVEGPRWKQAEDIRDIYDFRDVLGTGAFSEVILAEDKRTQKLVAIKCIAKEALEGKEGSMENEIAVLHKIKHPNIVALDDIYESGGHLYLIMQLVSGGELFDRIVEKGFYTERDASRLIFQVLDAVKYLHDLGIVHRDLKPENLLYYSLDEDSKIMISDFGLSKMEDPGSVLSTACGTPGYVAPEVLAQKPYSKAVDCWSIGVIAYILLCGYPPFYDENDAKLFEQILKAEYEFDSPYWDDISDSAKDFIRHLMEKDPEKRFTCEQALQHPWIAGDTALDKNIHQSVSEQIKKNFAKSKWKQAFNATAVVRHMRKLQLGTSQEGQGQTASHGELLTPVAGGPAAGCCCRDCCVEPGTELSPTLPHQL
Description: as §1

HIPK1 = HIPK1 (Homo sapiens, UniProt Q86Z02); experiment: Kinase panel, radiometric 33P filter binding; settings: read-out: % activity remaining
Description: as §1

MAP4K5 = MAP4K5 (Homo sapiens, UniProt Q9Y4K4); experiment: Kinase panel, radiometric 33P filter binding; settings: read-out: % activity remaining
Description: as §1

ERK5 = ERK5 (Homo sapiens, UniProt Q13164); experiment: Kinase panel, radiometric 33P filter binding; settings: read-out: % activity remaining
ERK5, sequence (Q13164 whole entry): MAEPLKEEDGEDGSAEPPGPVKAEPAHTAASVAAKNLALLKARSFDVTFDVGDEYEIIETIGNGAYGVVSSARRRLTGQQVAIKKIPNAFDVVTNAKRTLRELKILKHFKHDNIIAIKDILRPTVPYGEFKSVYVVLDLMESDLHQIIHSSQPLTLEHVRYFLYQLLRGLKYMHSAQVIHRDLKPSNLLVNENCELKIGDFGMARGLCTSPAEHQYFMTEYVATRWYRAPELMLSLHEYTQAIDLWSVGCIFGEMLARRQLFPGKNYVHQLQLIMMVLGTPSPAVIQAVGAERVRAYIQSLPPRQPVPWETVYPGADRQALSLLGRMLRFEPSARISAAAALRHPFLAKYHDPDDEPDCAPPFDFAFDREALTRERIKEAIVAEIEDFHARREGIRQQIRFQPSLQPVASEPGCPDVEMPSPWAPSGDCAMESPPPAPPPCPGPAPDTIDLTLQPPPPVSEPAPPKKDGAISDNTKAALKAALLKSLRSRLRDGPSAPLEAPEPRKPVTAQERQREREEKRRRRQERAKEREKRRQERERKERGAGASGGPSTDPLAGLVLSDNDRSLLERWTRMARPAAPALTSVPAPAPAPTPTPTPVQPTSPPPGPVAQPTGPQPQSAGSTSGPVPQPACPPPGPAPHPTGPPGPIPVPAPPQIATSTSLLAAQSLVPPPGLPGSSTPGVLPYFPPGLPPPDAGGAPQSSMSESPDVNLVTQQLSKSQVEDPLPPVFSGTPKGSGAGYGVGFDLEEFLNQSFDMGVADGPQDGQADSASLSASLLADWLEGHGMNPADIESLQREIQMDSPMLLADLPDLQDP
Description: as §1

MAPKAP-K2 = MAPKAP-K2 (Homo sapiens, UniProt P49137); experiment: Kinase panel, radiometric 33P filter binding; settings: read-out: % activity remaining
CLK2 = CLK2 (Homo sapiens, UniProt P49760); experiment: Kinase panel, radiometric 33P filter binding; settings: read-out: % activity remaining
Description: as §1

MNK1 = MNK1 (Homo sapiens, UniProt Q9BUB5); experiment: Kinase panel, radiometric 33P filter binding; settings: read-out: % activity remaining
MNK1, sequence (Q9BUB5 whole entry): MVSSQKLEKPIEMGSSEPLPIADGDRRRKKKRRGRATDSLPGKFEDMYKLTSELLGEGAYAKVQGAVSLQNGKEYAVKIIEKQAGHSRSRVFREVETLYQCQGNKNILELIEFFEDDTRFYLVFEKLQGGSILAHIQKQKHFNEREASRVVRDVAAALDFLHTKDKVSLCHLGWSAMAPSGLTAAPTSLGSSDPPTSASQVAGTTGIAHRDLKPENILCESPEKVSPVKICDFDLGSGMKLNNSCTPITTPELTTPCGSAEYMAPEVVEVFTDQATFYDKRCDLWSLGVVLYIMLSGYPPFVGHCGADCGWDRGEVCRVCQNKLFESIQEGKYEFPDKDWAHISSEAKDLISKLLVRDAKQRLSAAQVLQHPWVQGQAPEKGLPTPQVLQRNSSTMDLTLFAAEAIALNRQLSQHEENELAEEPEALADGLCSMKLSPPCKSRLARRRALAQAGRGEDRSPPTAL

STK33 = STK33 (Homo sapiens, UniProt Q9BYT3); experiment: Kinase panel, radiometric 33P filter binding; settings: read-out: % activity remaining
Description: as §1

MAPKAP-K3 = MAPKAP-K3 (Homo sapiens, UniProt Q16644); experiment: Kinase panel, radiometric 33P filter binding; settings: read-out: % activity remaining
EPH-A2 = EPH-A2 (Homo sapiens, UniProt P29317); experiment: Kinase panel, radiometric 33P filter binding; settings: read-out: % activity remaining
Description: as §1

EPH-B3 = EPH-B3 (Homo sapiens, UniProt P54753); experiment: Kinase panel, radiometric 33P filter binding; settings: read-out: % activity remaining
EPH-B3, sequence (P54753 34-998): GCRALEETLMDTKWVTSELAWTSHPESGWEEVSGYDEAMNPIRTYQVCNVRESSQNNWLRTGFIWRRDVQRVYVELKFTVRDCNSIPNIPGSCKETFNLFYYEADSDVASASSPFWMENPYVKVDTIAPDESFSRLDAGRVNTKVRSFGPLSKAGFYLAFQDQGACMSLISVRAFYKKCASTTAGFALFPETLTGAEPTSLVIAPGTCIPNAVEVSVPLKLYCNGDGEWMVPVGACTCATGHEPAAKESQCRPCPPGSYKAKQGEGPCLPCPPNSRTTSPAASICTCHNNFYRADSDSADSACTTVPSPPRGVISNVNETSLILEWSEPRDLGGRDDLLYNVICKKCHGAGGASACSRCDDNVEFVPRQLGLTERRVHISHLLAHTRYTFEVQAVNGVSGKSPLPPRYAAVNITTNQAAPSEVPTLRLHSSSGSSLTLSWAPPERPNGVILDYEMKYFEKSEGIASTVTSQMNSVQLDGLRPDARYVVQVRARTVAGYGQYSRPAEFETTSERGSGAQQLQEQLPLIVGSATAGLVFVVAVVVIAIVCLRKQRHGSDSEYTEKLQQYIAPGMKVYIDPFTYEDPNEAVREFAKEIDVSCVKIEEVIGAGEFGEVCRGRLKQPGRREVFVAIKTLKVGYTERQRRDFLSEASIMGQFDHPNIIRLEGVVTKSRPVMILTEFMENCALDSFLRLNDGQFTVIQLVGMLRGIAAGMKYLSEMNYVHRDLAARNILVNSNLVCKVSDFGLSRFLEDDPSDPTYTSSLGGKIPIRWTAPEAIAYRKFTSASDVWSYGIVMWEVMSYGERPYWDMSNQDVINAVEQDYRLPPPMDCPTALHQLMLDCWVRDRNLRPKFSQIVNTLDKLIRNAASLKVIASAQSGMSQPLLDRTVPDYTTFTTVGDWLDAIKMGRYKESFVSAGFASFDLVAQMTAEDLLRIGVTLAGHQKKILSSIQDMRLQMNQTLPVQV
Description: as §1

VEG-FR = VEG-FR (Homo sapiens, UniProt P17948); experiment: Kinase panel, radiometric 33P filter binding; settings: read-out: % activity remaining
Description: as §1

TTBK1 = TTBK1 (Homo sapiens, UniProt Q5TCY1); experiment: Kinase panel, radiometric 33P filter binding; settings: read-out: % activity remaining
Description: as §1

RIPK2 = RIPK2 (Homo sapiens, UniProt O43353); experiment: Kinase panel, radiometric 33P filter binding; settings: read-out: % activity remaining
ERK8 = ERK8 (Homo sapiens, UniProt Q8TD08); experiment: Kinase panel, radiometric 33P filter binding; settings: read-out: % activity remaining
Description: as §1

PKBa = PKBa (Homo sapiens, UniProt P31749); experiment: Kinase panel, radiometric 33P filter binding; settings: read-out: % activity remaining
PKBa, sequence (P31749 whole entry): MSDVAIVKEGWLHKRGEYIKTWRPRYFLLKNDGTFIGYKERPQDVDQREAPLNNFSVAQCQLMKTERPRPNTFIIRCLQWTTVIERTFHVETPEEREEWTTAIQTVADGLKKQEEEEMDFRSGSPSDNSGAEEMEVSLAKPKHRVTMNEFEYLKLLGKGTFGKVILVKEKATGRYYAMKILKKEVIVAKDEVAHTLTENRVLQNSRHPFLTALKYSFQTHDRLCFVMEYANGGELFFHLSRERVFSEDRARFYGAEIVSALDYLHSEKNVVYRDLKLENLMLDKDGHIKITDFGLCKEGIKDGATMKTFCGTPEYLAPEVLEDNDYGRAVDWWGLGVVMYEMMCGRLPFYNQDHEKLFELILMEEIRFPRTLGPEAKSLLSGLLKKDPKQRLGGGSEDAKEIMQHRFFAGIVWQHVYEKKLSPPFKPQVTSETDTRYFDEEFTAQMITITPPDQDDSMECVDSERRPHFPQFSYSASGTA
Description: as §1

TSSK1 = TSSK1 (Homo sapiens, UniProt Q9BXA7); experiment: Kinase panel, radiometric 33P filter binding; settings: read-out: % activity remaining
Description: as §1

DAPK1 = DAPK1 (Homo sapiens, UniProt P53355); experiment: Kinase panel, radiometric 33P filter binding; settings: read-out: % activity remaining
Description: as §1

PDGFRA = PDGFRA (Homo sapiens, UniProt P16234); experiment: Kinase panel, radiometric 33P filter binding; settings: read-out: % activity remaining
Description: as §1
Kinase % activity remaining s.d.

In the case of FC(F)(F)c1ccccc1-c1nc(NCc2cccs2)c2ccccc2n1 [Compound 1, NIH-12848, reference compound], the ΔTm at 63 µM (PI5P4Kγ+) is reported as 7.4 ± 0.6 °C.
For CC(C)c1ccccc1-c1nc(NCc2ccccn2)c2c(ccn2C)n1 [Compound 40], the remaining activity at 10 µM (BRSK1) was 115%, the remaining activity at 10 µM (PHK) was 107% and the remaining activity at 10 µM (TAK1) was 110%. It also gave a remaining activity at 10 µM (SIK3) of 111%, a remaining activity at 10 µM (TESK1) of 114% and a remaining activity at 10 µM (ULK1) of 111%. For the same molecule, the remaining activity at 10 µM (PKD1) was 109%, the remaining activity at 10 µM (DDR2) was 90% and the remaining activity at 10 µM (p38d MAPK) was 117%. The remaining activity at 10 µM (IKKb) was 100%, the remaining activity at 10 µM (PRAK) was 98% and the remaining activity at 10 µM (SIK2) was 100%. For the same molecule, the remaining activity at 10 µM (PIM3) was 87%, the remaining activity at 10 µM (ROCK 2) was 97% and the remaining activity at 10 µM (TBK1) was 93%. For the same molecule, the remaining activity at 10 µM (PDK1) was 103%, the remaining activity at 10 µM (CK1δ) was 100% and the remaining activity at 10 µM (CAMK1) was 97%. For the same molecule, the remaining activity at 10 µM (HIPK1) was 104%, the remaining activity at 10 µM (MAP4K5) was 112% and the remaining activity at 10 µM (ERK5) was 138%. It also gave a remaining activity at 10 µM (MAPKAP-K2) of 123%, a remaining activity at 10 µM (CLK2) of 94% and a remaining activity at 10 µM (MNK1) of 104%. For the same molecule, the remaining activity at 10 µM (STK33) was 99%, the remaining activity at 10 µM (MAPKAP-K3) was 102% and the remaining activity at 10 µM (EPH-A2) was 104%. It also gave a remaining activity at 10 µM (EPH-B3) of 105%, a remaining activity at 10 µM (VEG-FR) of 125% and a remaining activity at 10 µM (TTBK1) of 117%. For the same molecule, the remaining activity at 10 µM (RIPK2) was 92%, the remaining activity at 10 µM (ERK8) was 109% and the remaining activity at 10 µM (PKBa) was 103%. The remaining activity at 10 µM (TSSK1) was 96%, the remaining activity at 10 µM (DAPK1) was 105% and the remaining activity at 10 µM (PDGFRA) was 100%.

Source: paper PMC9097471, “Development of Selective Phosphatidylinositol 5-Phosphate 4-Kinase γ Inhibitors with a Non-ATP-competitive, Allosteric Binding Mode” (Journal of Medicinal Chemistry, 2022)
